Data taken from ChEMBL document CHEMBL1909294, “Translating clinical findings into knowledge in drug safety evaluation--drug induced liver injury prediction system (DILIps)” (PLoS Comput Biol, 2011).

How the values were obtained:
Hepatotoxicity [1] = test system: Hepatotoxicity;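 for HepSE bilirubinemia: bilirubinemia hepatic side effect score drawn from the DILIps training data, a prediction system for drug-induced liver injury; call rule not given here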;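 for HepSE cholecystitis: Cholecystitis-related hepatic side effect score drawn from the DILIps (drug-induced liver injury prediction) training data set; call rule not given here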;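 for HepSE cholelithiasis: hepatic side effect score for cholelithiasis, drawn from the DILIps training data for predicting drug-induced liver injury; call rule not given here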;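 for HepSE cirrhosis: cirrhosis hepatic side effect score taken from the DILIps (drug-induced liver injury prediction) training set; call rule not given here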;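 for HepSE elevated liver function tests: hepatic side effect score for raised liver function tests, as recorded in the DILIps training set used for predicting drug-induced liver injury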; for HepSE hepatic failure: call rule not given here;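 for HepSE hepatomegaly: hepatic side effect score for hepatomegaly, taken from the training set of the DILIps drug-induced liver injury prediction system; call rule not given here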
Hepatotoxicity [2] = test system: Hepatotoxicity; remark: listed apart in the source;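 for HepSE bilirubinemia: bilirubinemia hepatic side effect score drawn from the DILIps training data, a prediction system for drug-induced liver injury; call rule not given here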;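 for HepSE cholecystitis: Cholecystitis-related hepatic side effect score drawn from the DILIps (drug-induced liver injury prediction) training data set; call rule not given here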;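 for HepSE cholelithiasis: hepatic side effect score for cholelithiasis, drawn from the DILIps training data for predicting drug-induced liver injury; call rule not given here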;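 for HepSE cirrhosis: cirrhosis hepatic side effect score taken from the DILIps (drug-induced liver injury prediction) training set; call rule not given here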;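 for HepSE elevated liver function tests: hepatic side effect score for raised liver function tests, as recorded in the DILIps training set used for predicting drug-induced liver injury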; for HepSE hepatic failure: call rule not given here
Hepatotoxicity [3] = test system: Hepatotoxicity; remark: listed apart in the source;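 for HepSE bilirubinemia: bilirubinemia hepatic side effect score drawn from the DILIps training data, a prediction system for drug-induced liver injury; call rule not given here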;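 for HepSE cholecystitis: Cholecystitis-related hepatic side effect score drawn from the DILIps (drug-induced liver injury prediction) training data set; call rule not given here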;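 for HepSE cholelithiasis: hepatic side effect score for cholelithiasis, drawn from the DILIps training data for predicting drug-induced liver injury; call rule not given here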;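 for HepSE cirrhosis: cirrhosis hepatic side effect score taken from the DILIps (drug-induced liver injury prediction) training set; call rule not given here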;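 for HepSE elevated liver function tests: hepatic side effect score for raised liver function tests, as recorded in the DILIps training set used for predicting drug-induced liver injury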; for HepSE hepatic failure: call rule not given here
Hepatotoxicity [4] = test system: Hepatotoxicity; remark: listed apart in the source;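 for HepSE bilirubinemia: bilirubinemia hepatic side effect score drawn from the DILIps training data, a prediction system for drug-induced liver injury; call rule not given here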;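 for HepSE cholecystitis: Cholecystitis-related hepatic side effect score drawn from the DILIps (drug-induced liver injury prediction) training data set; call rule not given here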;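 for HepSE cholelithiasis: hepatic side effect score for cholelithiasis, drawn from the DILIps training data for predicting drug-induced liver injury; call rule not given here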;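 for HepSE cirrhosis: cirrhosis hepatic side effect score taken from the DILIps (drug-induced liver injury prediction) training set; call rule not given here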;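 for HepSE elevated liver function tests: hepatic side effect score for raised liver function tests, as recorded in the DILIps training set used for predicting drug-induced liver injury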; for HepSE hepatic failure: call rule not given here
Hepatotoxicity [5] = test system: Hepatotoxicity; remark: listed apart in the source; for HepSE hepatic failure: call rule not given here
Hepatotoxicity [6] = test system: Hepatotoxicity; remark: listed apart in the source; for HepSE hepatic failure: call rule not given here
Hepatotoxicity [7] = test system: Hepatotoxicity; remark: listed apart in the source
Hepatotoxicity [8] = test system: Hepatotoxicity; remark: listed apart in the source
Hepatotoxicity [9] = test system: Hepatotoxicity; remark: listed apart in the source
Hepatotoxicity [10] = test system: Hepatotoxicity; remark: listed apart in the source
Hepatotoxicity [11] = test system: Hepatotoxicity; remark: listed apart in the source
Hepatotoxicity [12] = test system: Hepatotoxicity; remark: listed apart in the source
Hepatotoxicity [13] = test system: Hepatotoxicity; remark: listed apart in the source
Hepatotoxicity [14] = test system: Hepatotoxicity; remark: listed apart in the source

Structure (SMILES) | HepSE_bilirubinemia (Hepatotoxicity [1]) | HepSE_cholecystitis (Hepatotoxicity [2]) | HepSE_cholelithiasis (Hepatotoxicity [3]) | HepSE_cirrhosis (Hepatotoxicity [4]) | HepSE_elevated liver function tests (Hepatotoxicity [5]) | HepSE_hepatic failure (Hepatotoxicity [6]) | HepSE_hepatic necrosis (Hepatotoxicity [7]) | HepSE_hepatitis (Hepatotoxicity [8]) | HepSE_hepatomegaly (Hepatotoxicity [9]) | HepSE_jaundice (Hepatotoxicity [10]) | HepSE_liver disease (Hepatotoxicity [11]) | HepSE_liver fatty (Hepatotoxicity [12]) | HepSE_liver function tests abnormal (Hepatotoxicity [13]) | HepSE_Combined Scores (Hepatotoxicity [14]) | further results
C[N+](C)(C)CC(O)CC(=O)[O-] (configuration not stated) [CARNITINE] | 0 | 0 | 0 | 0 | 0 | 0 | 0 | 0 | 0 | 0 | 0 | 0 | 0 | 0 | 
COC(=O)[C@H](c1ccccc1Cl)N1CCc2sccc2C1 [CLOPIDOGREL] |  |  |  |  |  |  |  |  |  |  |  |  |  |  | HepSE_bilirubinemia (Hepatotoxicity [1]; Liver): 1; HepSE_cholecystitis (Hepatotoxicity [2]; Liver): 0; HepSE_cholelithiasis (Hepatotoxicity [3]; Liver): 0; HepSE_cirrhosis (Hepatotoxicity [4]; Liver): 0; HepSE_elevated liver function tests (Hepatotoxicity [5]; Liver): 0; HepSE_hepatic failure (Hepatotoxicity [6]; Liver): 1; HepSE_hepatic necrosis (Hepatotoxicity [7]; Liver): 0; HepSE_hepatitis (Hepatotoxicity [8]; Liver): 1; HepSE_hepatomegaly (Hepatotoxicity [9]; Liver): 0; HepSE_jaundice (Hepatotoxicity [10]; Liver): 0; HepSE_liver disease (Hepatotoxicity [11]; Liver): 0; HepSE_liver fatty (Hepatotoxicity [12]; Liver): 1; HepSE_liver function tests abnormal (Hepatotoxicity [13]; Liver): 0; HepSE_Combined Scores (Hepatotoxicity [14]; Liver): 4
COc1cc(CC2c3c(cc(OC)c(OC)c3OC)CC[N+]2(C)CCCOC(=O)CCC(=O)OCCC[N+]2(C)CCc3cc(OC)c(OC)c(OC)c3C2Cc2cc(OC)c(OC)c(OC)c2)cc(OC)c1OC (configuration not stated) [DOXACURIUM] | 0 | 0 | 0 | 0 | 0 | 0 | 0 | 0 | 0 | 0 | 0 | 0 | 0 | 0 | 
CS(=O)(=O)OCCCCOS(C)(=O)=O [BUSULFAN] | 1 | 0 | 0 | 0 | 0 | 0 | 0 | 1 | 1 | 1 | 0 | 0 | 0 | 4 | 
COc1cc(Br)c(C[N+]2(CCOCCC3CCC4CC3C4(C)C)CCOCC2)cc1OC.[Br-] (configuration not stated) [PINAVERIUM BROMIDE] |  |  |  |  |  |  |  |  |  |  |  |  |  |  | HepSE_bilirubinemia (Hepatotoxicity [1]; Liver): 0; HepSE_cholecystitis (Hepatotoxicity [2]; Liver): 0; HepSE_cholelithiasis (Hepatotoxicity [3]; Liver): 0; HepSE_cirrhosis (Hepatotoxicity [4]; Liver): 0; HepSE_elevated liver function tests (Hepatotoxicity [5]; Liver): 0; HepSE_hepatic failure (Hepatotoxicity [6]; Liver): 0; HepSE_hepatic necrosis (Hepatotoxicity [7]; Liver): 0; HepSE_hepatitis (Hepatotoxicity [8]; Liver): 0; HepSE_hepatomegaly (Hepatotoxicity [9]; Liver): 0; HepSE_jaundice (Hepatotoxicity [10]; Liver): 0; HepSE_liver disease (Hepatotoxicity [11]; Liver): 0; HepSE_liver fatty (Hepatotoxicity [12]; Liver): 0; HepSE_liver function tests abnormal (Hepatotoxicity [13]; Liver): 0; HepSE_Combined Scores (Hepatotoxicity [14]; Liver): 0
CC(C)CN(C[C@@H](O)[C@H](Cc1ccccc1)NC(=O)O[C@H]1CCOC1)S(=O)(=O)c1ccc(N)cc1 | 0 | 0 | 0 | 0 | 0 | 0 | 0 | 0 | 0 | 0 | 0 | 0 | 0 | 0 | 
CCC(=O)O[C@@H](O[P@](=O)(CCCCc1ccccc1)CC(=O)N1C[C@H](C2CCCCC2)C[C@H]1C(=O)O)C(C)C [FOSINOPRIL] | 0 | 0 | 0 | 0 | 0 | 1 | 0 | 1 | 1 | 1 | 0 | 0 | 0 | 4 | 
COc1cc2c(cc1OC)[C@@H](Cc1cc(OC)c(OC)c(OC)c1)[N+](C)(CCCOC(=O)CC/C=C/CCC(=O)OCCC[N+]1(C)CCc3cc(OC)c(OC)cc3[C@H]1Cc1cc(OC)c(OC)c(OC)c1)CC2 (some centres not stated) | 0 | 0 | 0 | 0 | 0 | 0 | 0 | 0 | 0 | 0 | 0 | 0 | 0 | 0 | 
O=S(=O)([O-])CCS.[Na+] [MESNA] | 0 | 0 | 0 | 0 | 0 | 0 | 0 | 0 | 0 | 0 | 0 | 0 | 0 | 0 | 
C#C[C@]1(O)CC[C@H]2[C@@H]3CCC4=Cc5oncc5C[C@]4(C)[C@H]3CC[C@@]21C [DANAZOL] | 0 | 0 | 0 | 0 | 0 | 0 | 0 | 0 | 0 | 1 | 0 | 0 | 0 | 1 | 
[H]/N=C(\N/C(=N/[H])NCCCCCCNC(=N)NC(=N)Nc1ccc(Cl)cc1)Nc1ccc(Cl)cc1 [CHLORHEXIDINE] | 0 | 0 | 0 | 0 | 0 | 0 | 0 | 0 | 0 | 0 | 0 | 0 | 0 | 0 | 
CN[C@@H](C)Cc1ccccc1 [METHAMPHETAMINE] | 0 | 0 | 0 | 0 | 0 | 0 | 0 | 0 | 0 | 0 | 0 | 0 | 0 | 0 | 
Cc1nccn1CC1CCc2c(c3ccccc3n2C)C1=O (configuration not stated) [ONDANSETRON] | 0 | 0 | 0 | 0 | 0 | 1 | 0 | 0 | 0 | 0 | 1 | 0 | 0 | 2 | 
